Measured values reported in patent US8026110B2, “Combinatorial rosamine library and uses thereof” (New York University, priority 2006, dated 2011).
Entries after “also recorded” stand apart in the source; their conditions may differ.

System: DNA
Experiment: Screening of rosamine library toward 47 analytes: DNA
Format: binding
Settings: screen of 47 analytes, duplicated, FIG. 10B
Protocol: The rosamine derivative compounds were screened toward 47 different analytes that include proteins, polysaccharides, nucleic acids, and metal ions. The stock solution of each dye (50 μL) in HEPES (20 mM, pH=7.4) or PBS (20 mM, pH=7.4) was prepared, and diluted with the each analyte (50 μL, 1.0 mg/mL or 200 μM) in the same buffer solution. The final dye concentration varied from 0.5 μM to 10 μM. The fluorescence intensity fold changes of each dye in the presence of analytes were calculated by comparing the fluorescence intensity at the maximum emission wavelength with/without the analyte.

CCN(CCCN(C)C)c1ccc2c(=O)c3ccc(N)cc3oc2c1 [L, 3-Amino-6-[(3-dimethylamino-propyl)-ethyl-amino]-xanthen-9-one]
fluorescence response to DNA: selective response; also recorded: selective increase of fluorescence intensity
